The source of these data is patent publication US20080311266A1, “Salt Enhancement” (priority 2007, published 2008).

Molecules are shown by their SMILES.

The test system of one assay is tasting panel. Description: Tasting panel test of perceived saltiness in salt-reduced broth. It counts as in vivo. The conditions noted are these: for Level at which saltiness increase perceived / Effect on the perceived saltiness: salt-reduced broth, tasting panel; for Effect on the perceived saltiness: in words; for Upper threshold value for salt enhancement: stated in description. As to the method: A variety of compounds (listed in the table above) was tested in a salt-reduced broth. The compounds concerned were simply added to samples of the broth in a variety of concentrations and stirred in. The samples were tested by their being submitted to a tasting panel, which recorded its perceptions as to which sample (and therefore at what level of compound) a perception of increased saltiness was observed. The results are recorded in the table in the specification above.

A short description of assay [1]: Cooling threshold (level at which cooling effect detected). The class given is in vivo.

On to `CC1CCC(C(C)C)C(O)C1` (stereo not shown) [Menthol, menthol], for which, in the assay with tasting panel, the “Level at which saltiness increase perceived” value came out at 0.05 ppm. The “Threshold level at which cooling effect detected - estimated” value (“Threshold level” for short) in assay [1] is on record as 1.5 ppm.
In the case of `CC(C)[C@@H]1CC[C@@H](C)C[C@H]1C(=O)NCCc1ccccn1` [Compound 2, (1R,2S,5R)-2-isopropyl-5-methyl-N-(2-(pyridin-2-yl)ethyl)cyclohexanecarboxamide], in the assay on tasting panel, the “Level at which saltiness increase perceived” value is given as 0.005 ppm, the “Effect on the perceived saltiness” value is “considerably greater effect” and the “Upper threshold value for salt enhancement” value is listed as 0.005 ppm. Moreover, the “Threshold level” value in assay [1] is 0.08 ppm.
`CNC(=O)C(C)(C(C)C)C(C)C` [WS23]: the “Level at which saltiness increase perceived” value in the assay with tasting panel is 0.05 ppm. Also, the “Threshold level” value in assay [1] is on record as 1.5 ppm.
On to `CCNC(=O)C1CC(C)CCC1C(C)C` (stereo not shown) [WS3], for which the “Level at which saltiness increase perceived” value with tasting panel was 0.05 ppm. In assay [1], the “Threshold level” value is listed as 1 ppm.
In the case of `CC1CCC(C(C)C)C(C(=O)Nc2ccc(CC#N)cc2)C1` (stereo not shown) [Compound 1, N-(4-cyanomethylphenyl) p-menthanecarboxamide], in the assay with tasting panel, the “Level at which saltiness increase perceived” value was 0.005 ppm, the “Effect on the perceived saltiness” value is recorded as “considerably greater effect” and the “Upper threshold value for salt enhancement” value is on record as 0.005 ppm. For the same compound, the “Threshold level” value in assay [1] is reported as 0.08 ppm.
`CC1CCC(C(C)C)C(OC(=O)C(C)O)C1` (stereo not shown) [menthyl lactate]: the “Level at which saltiness increase perceived” value with tasting panel came out at 0.05 ppm. Also, in assay [1], the “Threshold level” value is on record as 0.8 ppm.
